In patent US5473039A, “Polypeptide analogs of apolipoprotein E, diagnostic systems and methods using the analogs” (The Scripps Research Institute, priority 1991, dated 1995):
One block for each substance: values may come before it. Ends that are not written are not given here.

Legend:
[1] = system: Human peripheral blood mononuclear (PBM) cells; test: PHA-stimulated PBM cell proliferation in serum-free CFBI medium; type: cell-based; settings: for IC50: read-out: Average Specific Activity (peptide concentration that causes a 50% reduction in activity)
Experimental: In these studies, human peripheral blood mononuclear (PBM) cells were isolated and assayed for phytohemagglutinin (PHA)-stimulated proliferation as described by Pepe et al (J. Immunol., 136:3716-3723, 1986) except that the cells were resuspended and cultured in a serum-free and protein-free CFBI medium as described by Shive et al, Proc. Natl. Acad. Sci. […] After 48 h the cultures were pulsed for 18 h with […] of [^3 H]-methylthymidine and harvested onto glass fiber filters. Radioactivity of the filters was counted in a Beckman liquid scintillation counter. […] The average biological activity of each polypeptide for inhibiting lymphocyte […] proliferation is shown in Table 6, and is expressed as an average specific activity, which is the peptide concentration that causes a 50% reduction in activity.

fibroblast LDL receptors = molecular target: T1, fibroblast LDL receptors (Homo sapiens, UniProt P01130); test: 125I-LDL binding to fibroblasts; settings: for effect of substitution on ability to inhibit binding of 125I-LDL to fibroblasts: substitution at both positions of tandem peptide
T1 construct: transferred to DMEM medium with 10% lipoprotein-depleted serum (LPDS) for 48 hr to upregulate the LDL receptors; endogenous in cells; host or cells: normal fibroblasts
Text: The role of specific amino acids within residues 141-155 of intact apo E has been studied by Lalazar et al., J. Biol. Chem., 263:3542 (1988) with human apo E variants containing single amino acid substitutions. The variants were produced in a bacterial expression system complexed with the phospholipid, dimyristoylphosphatidylcholine (DMPC) and tested for their ability to bind to fibroblast LDL receptors. Lalazar et al., J. Biol. Chem., 263:3542 (1988). To confirm that the tandem peptide was bound by the LDL receptor and to identify amino acids within this peptide that were critical for binding, three tandem peptides were prepared as described in Example 1 that contained the same amino acid substitutions at both positions in the tandem sequence. The changes included substitutions of the basic amino acids Lys 143 to Ala, Arg 150 to Ala, and Leu 144 with an alpha helix disrupting amino acid, Pro. ^125 I-LDL at a specific activity of 700-900 cpm/ng (>99% precipitable by 10% TCA) was used for the binding assay as described in Example 9. Normal fibroblasts were plated in 16 mm culture dishes, grown for 72-96 hr in DMEM medium with 10% fetal bovine serum (FBS) and then transferred to DMEM medium with 10% lipoprotein-depleted serum (LPDS) for 48 hr to upregulate the LDL receptors. The amount of ^125 I-LDL bound per well was normalized to the protein content of each well, which was measured with the Bio-Rad protein assay reagent using bovine serum albumin (BSA) as a standard.

[2] = system: ovarian theca/interstitial cells; test: ovarian androgen (androstenedione) production, LH-stimulated cultures; type: cell-based, rats; settings: non-conjugated, monomeric form
Text: The cell system used to examine the effect of various peptides and conjugates on ovarian androgen production was that described by Curtiss et al., J. Biol. Chem., 263:10965, (1988). Briefly, hypophysectomized (pituitary removed) immature female rats are sacrificed by cervical dislocation. The ovaries taken from the rats were trimmed free of fat and other non-ovarian tissues, cut into approximately six to eight pieces per ovary and dissociated in a solution of collagenase Dnaase which degrades the connective tissue releasing cell clusters. Approximately one to two hours of 37C incubation is required to dissociate the tissue. The cells were washed three times with fresh McCoy's 5A modified medium supplemented with glutamine and penicillin/streptomycin. No serum was added to this medium. The cells were cultured over night in 10 ml of medium in a T-25 flask to allow the non-steroidogenic cells to adhere. The next day non-adherent cells were recovered, washed three times with fresh media, counted and plated at a density of 1×10^3/ ml aliquotting 0.2 ml per well of a 96-well microtiter plate. All media in the experiment contains luteinizing hormone (LH) at 4 ng/ml and human high density lipoprotein (HDL) at 300 μg protein/mi. Monomeric peptides, peptide-BSA conjugates and self-conjugated peptide preparations at various concentrations (0.2 to 50 μg/ml) were added to the cells. The cells were then cultured for 48 hours at 37C, the supernatants were recovered, transferred to a clean 96-well microtiter plate and kept at -20C until the concentrations of androstenedione and progesterone were measured by radioimmunoassay. Each data point represents the average of measured androstenedione concentrations in four wells per treatment, and the standard error was less than 10% for all data points.
The ability of tandem Apo E peptide p(141-155)2 and self-conjugates of this peptide to affect ovarian androgen production was examined using the assay described in Example 4. […] After 48 hours of culture, the supernatants were collected, the androstenedione concentration measured by radioimmunoassay. […]

[3] = system: Human peripheral blood mononuclear (PBM) cells; test: PHA-stimulated lymphocyte proliferation (3H-thymidine uptake); type: cell-based; settings: for ED50 or dose of peptide required to inhibit lymphocyte proliferation 50%: Example 17
Text: A lymphocyte cell culture system was used to examine the ability of various polypeptides and conjugates to mimic the ability of Apo E to inhibit lymphocyte differentiation as evidence by proliferation.
Human peripheral blood mononuclear (PBM) cells are isolated from whole blood on a Ficoll-Hypaque gradient. The collected PBMs are washed three times with fresh medium (RPMI-1640 plus 5% fetal bovine serum, glutamine, penicillin, streptomycin and HEPES buffer). After washing, the cells are counted and set at a density of 1×10^5 /ml. For culture, 0.2 ml of the cells are plated per well of a 96-well microtiter plate. The peptide or conjugate is added to the wells in a 50 ul volume that can be either filter or UV sterilized. The typical timing for this experiment is to expose the cells to the Apo E polypeptide or self-conjugate over night. PHA, the mitogen that stimulates lymphocyte growth and proliferation, is added the next day. Forty-eight hours after the addition of PHA, 1 uCi of ^3 H-thymidine is added per well in a 1 ul volume and 18-24 hours later the cells are harvested on a mash. The mash cell harvester functions to collect the cells on filter paper where they are washed with buffer to remove free ^3 H-thymidine. The filter papers are dried, put into scintillation vials with scintillation cocktail and the B emissions obtained. Each data point collected represents the average thymidine uptake in four wells, and the standard error was less than 10% for all data points.
Various concentrations of various Apo E peptide were added to cultures that contained 8×10^5 peripheral blood mononuclear cells per ml. The cells were cultured at 37C and RPMI with 5% serum. All cells were exposed to PHA at 24 hours, labeled with 3H-thymidine at 72 hours and harvested at 90 hours. The counts per minute (cpm) of 3H-thymidine in the harvested cells was measured, and the data are expressed as the mean of four wells per treatment as a measure of thymidine uptake (x 1000 cpm). The standard deviation was less than 10% for all means.

LDL receptor = LDL receptor (Homo sapiens, UniProt P01130); test: fibroblast 125I-LDL degradation; type: cell-based; set-up: transferred to DMEM medium with 10% lipoprotein-depleted serum (LPDS) for 48 hr to upregulate the LDL receptors; endogenous in cells; host or cells: normal fibroblasts; settings: molar basis
Experimental: A trimer of the p141-155 peptide, p(141-155)3, was synthesized as in Example 1 and its activity compared with p(141-155) (monomeric) and with p(141-155)2 (dimeric) peptide. Normal fibroblasts were plated in wells of a 96-well culture plate and grown for 96 hr in DMEM medium with 10% FBS. The cells were transferred to DMEM medium with 10% LPDS for 48 hr to up regulate the LDL receptors. The LDL degradation assay was performed according to Example 9 with 2 μg/ml of ^125 I-LDL (300-500 cpm/ng) in 0.2 ml/well in DMEM medium with 10% LPDS and incubated for 5 hr at 37° C. The supernatants removed from the wells were extracted with 10% TCA. The TCA soluble counts were normalized to protein content per well as measured by the Bio-Rad protein assay.

T1 sequence (P01130 22-860): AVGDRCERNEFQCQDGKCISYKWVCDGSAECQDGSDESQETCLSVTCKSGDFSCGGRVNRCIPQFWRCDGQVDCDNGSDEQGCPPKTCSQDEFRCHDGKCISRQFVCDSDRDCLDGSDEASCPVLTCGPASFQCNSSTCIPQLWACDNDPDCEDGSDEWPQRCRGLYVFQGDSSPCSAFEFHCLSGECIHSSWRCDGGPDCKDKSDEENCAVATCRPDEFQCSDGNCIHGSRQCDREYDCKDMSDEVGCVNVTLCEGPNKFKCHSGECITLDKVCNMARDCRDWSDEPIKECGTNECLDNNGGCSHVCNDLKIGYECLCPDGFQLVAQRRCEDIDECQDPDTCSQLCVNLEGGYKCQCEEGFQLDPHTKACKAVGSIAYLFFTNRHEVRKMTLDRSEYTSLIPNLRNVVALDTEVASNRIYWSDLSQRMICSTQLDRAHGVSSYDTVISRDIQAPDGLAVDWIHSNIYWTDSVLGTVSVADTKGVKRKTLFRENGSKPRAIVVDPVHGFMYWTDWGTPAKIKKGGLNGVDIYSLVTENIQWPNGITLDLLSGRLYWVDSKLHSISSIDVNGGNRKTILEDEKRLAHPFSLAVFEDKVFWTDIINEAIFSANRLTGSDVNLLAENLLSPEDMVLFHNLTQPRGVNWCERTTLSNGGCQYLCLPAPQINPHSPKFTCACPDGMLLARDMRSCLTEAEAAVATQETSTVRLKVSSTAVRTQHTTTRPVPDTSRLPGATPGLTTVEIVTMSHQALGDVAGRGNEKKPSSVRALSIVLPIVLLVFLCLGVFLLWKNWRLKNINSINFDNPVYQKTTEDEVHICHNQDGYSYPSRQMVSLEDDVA
Sequence of LDL receptor (P01130 22-860): as above

- effect of substitution on ability to inhibit binding of 125I-LDL to fibroblasts (fibroblast LDL receptors): smallest effect
Substance: LRALRKRLLRDADDLLRALRKRLLRDADD [p(K143 --A)2]
- peptide concentration above which uptake of tritiated thymidine / lymphocyte proliferation was inhibited [1]: above 4 uM
- IC50 [1]: 5.6 ± 1.7 µM

Substance: RGLSAIRERL [p172-182, reference compound]
- effect on androgen secretion [2]: no effect

Substance: LRKLRKRLLADADDLLRKLRKRLLADADD [p(K150 --A)2]
- peptide concentration above which uptake of tritiated thymidine / lymphocyte proliferation was inhibited [1]: above 4 uM
- IC50 [1]: 7.5 ± 3 µM
- effect of substitution on ability to inhibit binding of 125I-LDL to fibroblasts (fibroblast LDL receptors): without significant alterations in the biological activity

Substance: Y(LRKLRKRLLRDADDL)4 [Tetramer]
- inhibitory activity relative to the dimer ([1]; molar basis): twice
- IC50 [1]: 2.8 ± 1.3 µM
- ED50 or dose of peptide required to inhibit lymphocyte proliferation 50% [3]: 1.2 µM

- activity in inhibiting 125I-LDL binding to fibroblasts (fibroblast LDL receptors; at 60 μM): no activity
Substance: LRKPRKRLLRDADDLLRKPRKRLLRDADDL [144 leu--pro, (LRKPRKRLLRDADDL)2]

Substance: Self-conjugated apo AI95-105: self-conjugated control peptide of apo AI residues 95-105 (AKVQPYLDDFQ; also: self-conjugated; UniProt P02647 119-129, looked up, fragment) [reference compound]
- 3H-Thymidine Uptake (cpm ± SD), With Washing ([3]; 40 μg/ml, cells washed three times at 24 hr prior to PHA): 64,524 ± 4,200 cpm
- 3H-Thymidine Uptake (cpm ± SD), No Washing ([3]; 40 μg/ml, no washing): 83,480 ± 4,027 cpm

- effectiveness in inhibiting fibroblast 125I-LDL degradation relative to the dimeric peptide (LDL receptor): 15 times
Substance: LRKLRKRLLRDADDLLRKLRKRLLRDADD-LRKLRKRLLRDADDL [p(141-155)3]
- ED50 or dose of peptide required to inhibit lymphocyte proliferation 50% [3]: 7 µM
